Source: patent US9815846B2 (Merck Sharp & Dohme Corp., priority 2014, dated 2017)

target: human TrkA receptor (Homo sapiens (Human), UniProt P04629); experiment: DiscoverX PathHunter TrkA functional assay (NGF-stimulated U2OS cells); type: cell-based; settings: U2OS cells expressing human TrkA-PK, Shc1-EA and p75NTR; compound 1 h, then NGF at ~80% of maximal response for 3 h; luminescence
Sequence (P04629 33-796): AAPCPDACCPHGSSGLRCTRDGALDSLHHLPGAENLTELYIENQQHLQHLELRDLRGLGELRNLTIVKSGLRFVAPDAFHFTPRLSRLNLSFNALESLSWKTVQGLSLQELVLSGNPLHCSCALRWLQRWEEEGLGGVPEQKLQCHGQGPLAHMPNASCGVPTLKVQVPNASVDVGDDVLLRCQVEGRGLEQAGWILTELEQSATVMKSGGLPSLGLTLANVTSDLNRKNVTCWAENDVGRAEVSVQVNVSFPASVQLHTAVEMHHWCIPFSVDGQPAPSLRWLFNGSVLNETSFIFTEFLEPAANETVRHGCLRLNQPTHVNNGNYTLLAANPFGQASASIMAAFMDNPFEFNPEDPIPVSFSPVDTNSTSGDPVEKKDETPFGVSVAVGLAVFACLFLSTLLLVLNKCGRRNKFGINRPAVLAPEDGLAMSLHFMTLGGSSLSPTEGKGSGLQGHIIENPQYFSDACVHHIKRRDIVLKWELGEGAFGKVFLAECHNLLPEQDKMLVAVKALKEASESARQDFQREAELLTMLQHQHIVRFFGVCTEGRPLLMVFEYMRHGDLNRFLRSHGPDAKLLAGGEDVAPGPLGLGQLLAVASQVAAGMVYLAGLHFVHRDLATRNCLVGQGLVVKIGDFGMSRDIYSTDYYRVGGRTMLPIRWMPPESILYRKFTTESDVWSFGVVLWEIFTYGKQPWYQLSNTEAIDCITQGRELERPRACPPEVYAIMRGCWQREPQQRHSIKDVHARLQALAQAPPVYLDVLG

Row | SMILES | IC50
1 | Cn1ccc(-c2cc(C(=O)Nc3cnc(Cn4ccc(=O)[nH]c4=O)nc3-c3ccccc3)c(F)cc2C(F)(F)F)n1 [Example 226, N-(2-((2,4-dioxo-3,4-dihydropyrimidin-1(2H)-yl)methyl)-4-phenylpyrimidin-5-yl)-2-fluoro-5-(1-methyl-1H-pyrazol-3-yl)-4-(trifluoromethyl)benzamide] | 0.35 nM
2 | CNC(=O)N1CCc2nc(-c3ccccc3)c(NC(=O)c3cc(-c4ncccn4)c(C(F)(F)F)cc3F)cc2C1 [Example 150, 3-(2-fluoro-5-(pyrimidin-2-yl)-4-(trifluoromethyl)benzamido)-N-methyl-2-phenyl-7,8-dihydro-1,6-naphthyridine-6(5H)-carboxamide] | 14 nM
3 | Cn1ccc(-c2cc(C(=O)Nc3ncc(CN4CCOC4=O)nc3-c3ccccc3)c(F)cc2C(F)(F)F)n1 [Example 214, 2-Fluoro-5-(1-methyl-1H-pyrazol-3-yl)-N-(5-((2-oxooxazolidin-3-yl)methyl)-3-phenylpyrazin-2-yl)-4-(trifluoromethyl)benzamide] | 4.6 nM
4 | Cn1ccc(-c2cc(C(=O)Nc3cnc(CNC(=O)Cn4cncn4)nc3-c3ccccc3)c(F)cc2C(F)(F)F)n1 [Example 68] | 0.4 nM
5 | Cn1ccc(-c2cc(C(=O)Nc3ccc(C4CN(C(=O)CN)C4)nc3-c3ccccc3)c(F)cc2C(F)(F)F)n1 [Example 207, 2-fluoro-N-(6-(1-glycylazetidin-3-yl)-2-phenylpyridin-3-yl)-5-(1-methyl-1H-pyrazol-3-yl)-4-(trifluoromethyl)benzamide] | 1.1 nM
6 | Cc1ncc(NC(=O)c2ccc(C(F)(F)F)c(-c3ccn(C)n3)c2)c(-c2ccccc2)n1 [Example 15, N-(2-methyl-4-phenylpyrimidin-5-yl)-3-(1-methyl-1H-pyrazol-3-yl)-4-(trifluoromethyl)benzamide] | 3 nM
7 | CCNC(=O)Cc1ncc(NC(=O)c2cc(-c3ccn(C)n3)c(C(F)(F)F)cc2F)c(-c2ccccc2)n1 [Example 105, N-(2-(2-(ethylamino)-2-oxoethyl)-4-phenylpyrimidin-5-yl)-2-fluoro-5-(1-methyl-1H-pyrazol-3-yl)-4-(trifluoromethyl)benzamide] | 0.53 nM
8 | Cc1cnn(-c2ccc(C(N)=O)cc2NC(=O)c2ccc(C(F)(F)F)c(-c3ccn(C)n3)c2)c1 [Example 86, N-(5-carbamoyl-2-(4-methyl-1H-pyrazol-1-yl)phenyl)-3-(1-methyl-1H-pyrazol-3-yl)-4-(trifluoromethyl)benzamide] | 19 nM
9 | Cc1cc(-c2ccccc2NC(=O)c2cc(-n3nc(C)cc3C)ccc2Cl)on1 [Example 11, 2-chloro-5-(3,5-dimethyl-1H-pyrazol-1-yl)-N-[2-(3-methylisoxazol-5-yl)phenyl]benzamide] | 7500 nM
10 | NC(=O)Cc1ncc(NC(=O)c2cc(-c3cc[nH]n3)c(C(F)(F)F)cc2F)c(-c2ccccc2)n1 [Example 126, N-(2-(2-amino-2-oxoethyl)-4-phenylpyrimidin-5-yl)-2-fluoro-5-(1H-pyrazol-3-yl)-4-(trifluoromethyl)benzamide] | 17 nM
11 | CC(=O)N1CCc2nc(-c3ccccc3)c(NC(=O)c3cc(-c4ccn(C)n4)c(C(F)(F)F)cc3Cl)cc2C1 [Example 151, N-(6-acetyl-2-phenyl-5,6,7,8-tetrahydro-1,6-naphthyridin-3-yl)-2-chloro-5-(1-methyl-1H-pyrazol-3-yl)-4-(trifluoromethyl)benzamide] | 0.54 nM
12 | Cn1ccc(-c2cc(C(=O)Nc3cnc(CC(=O)NC4CCC4)nc3-c3ccccc3)c(F)cc2C(F)(F)F)n1 [Example 113, N-(2-(2-(cyclobutylamino)-2-oxoethyl)-4-phenylpyrimidin-5-yl)-2-fluoro-5-(1-methyl-1H-pyrazol-3-yl)-4-(trifluoromethyl)benzamide] | 1.3 nM
13 | Cn1ccc(-c2cc(C(=O)Nc3cnc(CNC(=O)C4CC4)nc3-c3ccccc3)ccc2C(F)(F)F)n1 [Example 51, N-(2-(cyclopropanecarboxamidomethyl)-4-phenylpyrimidin-5-yl)-3-(1-methyl-1H-pyrazol-3-yl)-4-(trifluoromethyl)benzamide] | 4.9 nM
14 | Cc1cc(C)n(-c2ccc(Cl)c(C(=O)Nc3cnc(C)nc3-c3ccccc3)c2)n1 [Example 9, 2-chloro-5-(3,5-dimethyl-1H-pyrazol-1-yl)-N-(2-methyl-4-phenylpyrimidin-5-yl)benzamide] | 140 nM
15 | Cn1ccc(-c2cc(C(=O)Nc3cnc(NCCO)nc3-c3ccccc3)ccc2C(F)(F)F)n1 [Example 210, N-(2-((2-hydroxyethyl)amino)-4-phenylpyrimidin-5-yl)-3-(1-methyl-1H-pyrazol-3-yl)-4-(trifluoromethyl)benzamide] | 2.5 nM
16 | Cn1ccc(-c2cc(C(=O)Nc3cc(CC(N)=O)cnc3-c3ccccc3)ccc2C(F)(F)F)n1 [Example 203, N-(5-(2-amino-2-oxoethyl)-2-phenylpyridin-3-yl)-3-(1-methyl-1H-pyrazol-3-yl)-4-(trifluoromethyl)benzamide] | 6 nM
17 | CC(N)c1ccc(-c2cnc(-c3ccccc3)c(NC(=O)c3cc(-c4ccn(C)n4)c(C(F)(F)F)cc3F)c2)nc1 (centres unmarked) [Example 178, N-(5-(1-aminoethyl)-6′-phenyl-[2,3′-bipyridin]-5′-yl)-2-fluoro-5-(1-methyl-1H-pyrazol-3-yl)-4-(trifluoromethyl)benzamide] | 0.29 nM
18 | O=C(Nc1cc2c(nc1-c1ccccc1)CCNC2=O)c1cc(-c2ncccn2)c(C(F)(F)F)cc1F [Example 139, 2-Fluoro-N-(5-oxo-2-phenyl-5,6,7,8-tetrahydro-1,6-naphthyridin-3-yl)-5-(pyrimidin-2-yl)-4-(trifluoromethyl)benzamide] | 1.4 nM
19 | Cn1ccc(-c2cc(C(=O)Nc3cc4c(nc3-c3ccccc3)CC(=O)NC4)c(F)cc2C(F)(F)F)n1 [Example 153, 2-fluoro-5-(1-methyl-1H-pyrazol-3-yl)-N-(7-oxo-2-phenyl-5,6,7,8-tetrahydro-1,6-naphthyridin-3-yl)-4-(trifluoromethyl)benzamide] | 6.8 nM
20 | Cn1ccc(-c2cc(C(=O)Nc3cnc(CNS(C)(=O)=O)nc3-c3ccccc3)ccc2C(F)(F)F)n1 [Example 75, 3-(1-methyl-1H-pyrazol-3-yl)-N-(2-(methylsulfonamidomethyl)-4-phenylpyrimidin-5-yl)-4-(trifluoromethyl)benzamide] | 12 nM
21 | Cn1ccc(-c2cc(C(=O)Nc3cnc(CS(C)(=O)=O)nc3-c3ccccc3)c(F)cc2C(F)(F)F)n1 [Example 199, 2-Fluoro-5-(1-methyl-1H-pyrazol-3-yl)-N-(2-((methylsulfonyl)methyl)-4-phenylpyrimidin-5-yl)-4-(trifluoromethyl)benzamide] | 4 nM
22 | Cn1ccc(-c2cc(C(=O)Nc3cc4c(nc3-c3ccccc3)CCN(CCO)C4)ccc2C(F)(F)F)n1 [Example 158, N-(6-(2-hydroxyethyl)-2-phenyl-5,6,7,8-tetrahydro-1,6-naphthyridin-3-yl)-3-(1-methyl-1H-pyrazol-3-yl)-4-(trifluoromethyl)benzamide] | 7.5 nM
23 | Cn1ccc(-c2cc(C(=O)Nc3cnc(C4(C(N)=O)CC4)nc3-c3ccccc3)c(F)cc2C(F)(F)F)n1 [Example 119, N-(2-(1-carbamoylcyclopropyl)-4-phenylpyrimidin-5-yl)-2-fluoro-5-(1-methyl-1H-pyrazol-3-yl)-4-(trifluoromethyl)benzamide] | 7.9 nM
